Assay results from patent US20220127247A1, “N-(PYRIDIN-2-YL)PYRIDINE-SULFONAMIDE DERIVATIVES AND THEIR USE IN THE TREATMENT OF DISEASE” (NOVARTIS AG, priority 2019, published 2022).

What was measured:
delF508-CFTR [1] = biological target: T1, delF508-CFTR (Homo sapiens, UniProt P13569, DEL508-508); assay: Measurement of delF508-CFTR-HRP surface expression in CFBE41o- cells; assay type: cell-based; conditions: for EC50: HRP-tagged delF508-CFTR in CFBE41o- cells, 24 h with compound, luminescence, 10-point curve, top 10 μM; for Emax: efficacy relative to reference compound 3-(6-(1-(2,2-difluorobenzo[d][1,3]dioxol-5-yl)cyclopropane-1-carboxamido)-3-methylpyridin-2-yl)benzoic acid, CFBE41o- cells, 24 h, read-out: DelF508-CFTR-HRP Amax %
T1 construct: expressed in transfected cells
Outline: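 CFBE41o- cells stably expressing delF508-CFTR with HRP in the fourth extracellular loop, induced with 500 ng/mL doxycycline for 48 h, then treated with compound (top 10 μM, 10-point 3-fold) for 24 h at 37° C. Surface HRP detected by luminescence with cell-impermeant substrate; EC50 from logistic fit of triplicates, normalized to lowest concentration.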

delF508-CFTR [2] = biological target: T1, delF508-CFTR; assay: delF508-CFTR functional activity in primary human bronchial epithelial cells (HBECs), Multi-Transepithelial Clamp Circuit (MTECC-24) assay; assay type: cell-based; conditions: for EC50: primary human delF508-CFTR bronchial epithelial cells, 24 h with compound, equivalent short circuit current (Ieq), forskolin plus potentiator, mean of at least two replicates, read-out: MTECC24-CFHBEC EC50; for MTECC24-CFHBEC Amax %: test compound added 24 h before assay, with potentiator (S)-3-amino-6-methoxy-N-(3,3,3-trifluoro-2-hydroxy-2-methylpropyl)-5-(trifluoromethyl)picolinamide, relative to 2 μM 3-(6-(1-(2,2-difluorobenzo[d][1,3]dioxol-5-yl)cyclopropane-1-carboxamido)-3-methylpyridin-2-yl)benzoic acid + 0.5 μM N-(2,4-di-tert-butyl-5-hydroxyphenyl)-4-oxo-1,4-dihydroquinoline-3-carboxamide
Outline: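 Patient-derived delF508 HBECs, air/liquid-interface differentiated ~4 weeks, were compound-treated 24 hrs, then short-circuit current (Ieq) recorded at ~36.5° C in HEPES pH7.4 medium with sequential benzamil, forskolin, potentiator and bumetanide. Normalized to 0.1% DMSO; EC50, fold change and % Amax from curve fits.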

T1 sequence (P13569 with tags, fused parts or gaps DEL508-508): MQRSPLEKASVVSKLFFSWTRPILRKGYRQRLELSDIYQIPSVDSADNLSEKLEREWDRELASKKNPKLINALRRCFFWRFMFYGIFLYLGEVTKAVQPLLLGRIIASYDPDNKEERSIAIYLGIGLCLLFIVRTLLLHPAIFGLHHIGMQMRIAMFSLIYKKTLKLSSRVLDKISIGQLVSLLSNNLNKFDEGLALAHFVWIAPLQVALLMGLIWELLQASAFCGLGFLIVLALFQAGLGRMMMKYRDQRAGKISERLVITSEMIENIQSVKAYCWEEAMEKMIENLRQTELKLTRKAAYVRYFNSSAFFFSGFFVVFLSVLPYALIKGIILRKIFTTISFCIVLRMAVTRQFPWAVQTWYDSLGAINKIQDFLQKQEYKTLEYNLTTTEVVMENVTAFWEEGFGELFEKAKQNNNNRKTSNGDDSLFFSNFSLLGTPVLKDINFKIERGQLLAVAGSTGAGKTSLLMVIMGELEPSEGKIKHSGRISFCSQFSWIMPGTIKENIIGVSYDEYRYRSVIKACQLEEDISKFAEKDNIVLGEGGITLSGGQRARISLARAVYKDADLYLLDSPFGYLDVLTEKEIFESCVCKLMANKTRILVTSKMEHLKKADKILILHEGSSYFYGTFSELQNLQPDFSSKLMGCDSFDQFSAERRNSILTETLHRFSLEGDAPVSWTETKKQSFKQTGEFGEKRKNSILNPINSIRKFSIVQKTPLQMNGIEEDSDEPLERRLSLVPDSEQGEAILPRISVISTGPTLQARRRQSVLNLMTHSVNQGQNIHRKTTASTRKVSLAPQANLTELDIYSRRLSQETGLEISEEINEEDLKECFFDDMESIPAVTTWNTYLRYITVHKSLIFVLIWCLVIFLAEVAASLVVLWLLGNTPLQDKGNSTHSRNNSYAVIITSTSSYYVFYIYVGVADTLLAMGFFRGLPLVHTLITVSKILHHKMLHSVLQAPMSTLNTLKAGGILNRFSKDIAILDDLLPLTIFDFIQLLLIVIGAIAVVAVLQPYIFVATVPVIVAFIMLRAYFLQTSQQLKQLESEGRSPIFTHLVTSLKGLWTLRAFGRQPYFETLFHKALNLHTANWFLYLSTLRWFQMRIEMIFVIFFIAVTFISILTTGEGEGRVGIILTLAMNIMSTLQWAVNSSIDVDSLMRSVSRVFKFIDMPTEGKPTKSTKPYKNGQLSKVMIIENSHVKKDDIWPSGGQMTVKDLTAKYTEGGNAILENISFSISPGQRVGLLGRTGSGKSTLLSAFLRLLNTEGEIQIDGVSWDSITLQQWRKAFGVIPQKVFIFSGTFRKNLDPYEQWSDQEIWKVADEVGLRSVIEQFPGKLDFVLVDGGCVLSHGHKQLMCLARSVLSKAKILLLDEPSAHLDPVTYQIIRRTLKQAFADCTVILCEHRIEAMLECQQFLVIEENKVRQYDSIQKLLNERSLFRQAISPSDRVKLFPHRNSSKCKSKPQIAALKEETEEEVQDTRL

Row | EC50 (delF508-CFTR [1]) | Emax (delF508-CFTR [1]) | EC50 (delF508-CFTR [2]) | MTECC24-CFHBEC Amax % (delF508-CFTR [2]) | SMILES
1 | 1.91 µM | 997% | 0.065 µM | 128% | Cc1ccccc1-c1nc(NS(=O)(=O)c2cccc(N3CCC[C@@H](CC(=O)O)C3)n2)ccc1C(F)(F)F [Compound 60, (S)-2-(1-(6-(N-(6-(o-tolyl)-5-(trifluoromethyl)pyridin-2-yl)sulfamoyl)pyridin-2-yl)piperidin-3-yl)acetic Acid]
2 | 1.77 µM |  | 0.035 µM | 145% | CCc1ccc(F)cc1-c1nc(NS(=O)(=O)c2cccc(N(CC)CCC(=O)O)n2)ccc1C(F)(F)F [Compound 81, 3-(ethyl(6-(N-(6-(2-ethyl-5-fluorophenyl)-5-(trifluoromethyl)pyridin-2-yl)sulfamoyl)pyridin-2-yl)amino)propanoic Acid]
3 | 0.97 µM |  | 0.014 µM | 207% | Cc1ccc(F)cc1-c1nc(NS(=O)(=O)c2cccc(N(CCC(=O)O)CC(C)C)n2)ccc1C(F)(F)F [Compound 126, 3-((6-(N-(6-(5-fluoro-2-methylphenyl)-5-(trifluoromethyl)pyridin-2-yl)sulfamoyl)pyridin-2-yl)(isobutyl)amino)propanoic Acid]
4 | 1.73 µM |  | 0.031 µM | 155% | Cc1ccc(F)cc1-c1nc(NS(=O)(=O)c2cccc(N3CCC[C@](C)(CC(=O)O)C3)n2)ccc1C(F)(F)F (single isomer, unassigned) [Compound 65]
5 | 2.36 µM |  | 0.365 µM | 137% | CCN(CCC(=O)O)c1cccc(S(=O)(=O)Nc2ccc(C(F)(F)F)c(-c3ccccc3C)n2)n1 [Compound 71, 3-(ethyl(6-(N-(6-(o-tolyl)-5-(trifluoromethyl)pyridin-2-yl)sulfamoyl)pyridin-2-yl)amino)propanoic Acid]
6 | 1.36 µM | 643% | 0.422 µM | 114% | Cc1ccccc1-c1nc(NS(=O)(=O)c2cccc(N(CCCC(=O)O)C3CC3)n2)ccc1C(F)(F)F [Compound 125, 4-(cyclopropyl(6-(N-(6-(o-tolyl)-5-(trifluoromethyl)pyridin-2-yl)sulfamoyl)pyridin-2-yl)amino)butanoic Acid]
7 | 1.58 µM |  | 0.095 µM | 232% | CCCN(CCCC(=O)O)c1cccc(S(=O)(=O)Nc2ccc(C(F)(F)F)c(-c3ccccc3C)n2)n1 [Compound 132, 4-(propyl(6-(N-(6-(o-tolyl)-5-(trifluoromethyl)pyridin-2-yl)sulfamoyl)pyridin-2-yl)amino)butanoic Acid]
8 | 1.85 µM | 563% | 0.27 µM | 151% | Cc1ccccc1-c1nc(NS(=O)(=O)c2cccc(N(CCC(=O)O)C3CC3)n2)ccc1C(F)(F)F [Compound 118, 3-(cyclopropyl(6-(N-(6-(o-tolyl)-5-(trifluoromethyl)pyridin-2-yl)sulfamoyl)pyridin-2-yl)amino)propanoic Acid]
9 | 0.77 µM | 589% | 0.586 µM | 59% | CCCN(CCCC(=O)O)c1cccc(S(=O)(=O)Nc2ccc(Cl)c(-c3c(C)cccc3C)n2)n1 [Compound 157, 4-((6-(N-(5-chloro-6-(2,6-dimethylphenyl)pyridin-2-yl)sulfamoyl)pyridin-2-yl)(propyl)amino)butanoic Acid]
10 | 1.35 µM |  | 0.005 µM | 135% | CC(C)c1ccccc1-c1nc(NS(=O)(=O)c2cccc(N(C)CCCC(=O)O)n2)ccc1C(F)(F)F [Compound 90, 4-((6-(N-(6-(2-isopropylphenyl)-5-(trifluoromethyl)pyridin-2-yl)sulfamoyl)pyridin-2-yl)(methyl)amino)butanoic Acid]
